Reference: patent US5795885A, “Method of inhibiting profileration of cells by administering an aminosterol compound” (priority 1995, dated 1998)

Key:
[1] = tested on: PHA-stimulated human lymphocytes; experiment: inhibition of mitogen (PHA)-stimulated growth of human T-cells; type: cell-based
From the text: Results are tabulated below.

[2] = tested on: human microvascular cells; experiment: endothelial cell cord formation in vitro; type: cell-based
From the text: Endothelial cells have the capacity in vitro to form tubular aggregates resembling capillaries in various early stages of formation. This conversion occurs under relatively specific conditions, in which essential growth factors along with an effective substratum are provided. It has been shown that both the interaction of growth factors with the endothelial cell and its attachment to a substratum activate the NHE. The activation of this exchanger is believed to be required for subsequent morphologic transformation of the endothelial cell into a multicellular tubular structure.
To assess the effect of compounds on the cord-like structures formed by human microvascular cells when plated in the presence of VEGF (Vascular Endothelial Growth Factor) and basic fibroblast growth factor on a collagen matrix, a standard cord formation assay was used.

[3] = tested on: B16 melanoma; experiment: B16 melanoma growth in C57B mice; type: in vivo, mouse
Protocol: The growth of B16 melanoma in C57B mice is dependent upon neovascularization.
Using the growth of B16 melanoma cells in C57B mice, a recognized model for the evaluation of inhibitors of angiogenesis on the growth of cancers, the effects of subcutaneous, intraperitoneal and oral administration of squalamine were evaluated.
Based on the idea that tumor growth involves both the clonal expansion of a malignant cell along with the development of a supporting vascular supply, a combination of compound 1436 with squalamine was tested to determine whether it would achieve a synergistic effect on solid tumor growth. This concept was evaluated in the B16 melanoma model.
Animals were implanted with B16 melanoma followed by treatment with compound 1436 or 1256 administered in a combined schedule or separately. […] Thus, a combination of these two compounds achieves a therapeutic benefit in tumors dependent on neovascularization that may prevent metastatic spread.

[4] = tested on: bacteria, fungi and protozoa; settings: cited from earlier work
[5] = tested on: human NHE1; experiment: internal pH recovery, PS120 fibroblasts transfected with human NHE1 (BCECF-AM); type: cell-based; settings: 5 μg/ml; acid-preloaded by 40 mM NH4Cl
Protocol: (§1) PS120 fibroblasts transfected with rabbit or human NHE1 were grown as described above.

[6] = tested on: stage 59-60 Xenopus tadpoles; settings: 10 μg/ml in water
[7] = tested on: chick chorioallantoic membrane; experiment: chorioallantoic membrane (CAM) model, capillary growth; type: in vivo
From the text: The growing capillaries within the chorioallantoic membrane model (CAM model) have been used as a system in which to evaluate the effect of agents on their potential to inhibit new vessel growth. Neovascularization occurs most aggressively over the first week of embryonic development. Thereafter capillary growth is characterized by principally "elongation" rather than "de novo" formation.
In the standard assay, agents are applied locally to a region of the embryo over which neovascularization will occur. Agents are assessed by their ability to inhibit this process, as evaluated by visual examination about 7 days after application. […] The assay utilized is described in detail in Auerbach et al., Pharm. Ther. 51, 1991, 1-11.

[8] = tested on: chick embryo vitelline capillaries; experiment: chick embryo vitelline capillary regression assay; type: in vivo; set-up: key to vitelline capillary regression: +: Vascular reactivity; 0: No vascular reactivity; +/-: Equivocal reactivity; settings: for vitelline capillary regression: 60 minutes
How it was run: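 Compounds applied to 3- to 5-day chick embryos in 0.1 ml of 15% Ficol 400 in PBS. Regression of vitelline capillaries, seen as pinching-off of capillary loops into enclosed sacs, was scored visually after 60 minutes.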

[9] = tested on: human coronary artery smooth muscle; experiment: proliferation of human coronary artery smooth muscle in vitro; type: cell-based; settings: FIG. 15
From the text: Aminosterols of the invention may also have utility in inhibiting the growth factor mediated proliferation of smooth muscle within the artery. Following coronary angioplasty, reocclusion commonly occurs, secondary to reparative proliferation of the vascular smooth muscle within the wall of the surgically manipulated blood vessel. This process generally takes place over the course of 7-10 days. To evaluate whether an agent could prevent the growth factor mediated proliferation of smooth muscle within the artery, compound 1436 was evaluated in vitro for its effect on the proliferation of human coronary artery smooth muscle. Results for compound 1436 are shown in FIG. 13, and those for squalamine are shown in FIG. 14, with FIG. 15 being a composite logarithmic plot.

[10] = tested on: human foreskin fibroblasts; experiment: growth inhibition of human foreskin fibroblasts in vitro; type: cell-based; settings: 10 μg/ml
[11] = tested on: rabbit NHE1; experiment: internal pH recovery, PS120 fibroblasts transfected with rabbit NHE1 (BCECF-AM); type: cell-based; settings: 5 μg/ml; acid-preloaded by 40 mM NH4Cl
Protocol: as §1

[12] = tested on: VX2 carcinoma implanted into the rabbit cornea; experiment: tumor-induced (VX2 carcinoma) corneal neovascularization in rabbits; type: in vivo; settings: ELVAX 40 P pellet
From the text: The implantation of VX2 carcinoma into the rabbit cornea results in the induction of new blood vessels within several days (Tamargo et al., Cancer Research 51, 1991, 672-675). It is believed that this carcinoma secretes growth factors that stimulate new blood-vessel growth. Thus, this model is indicative in vivo evidence of therapeutic utility in the treatment of pathological disorders of vascularization, including the metastatic spread of tumors, diabetic retinopathy, macular degeneration, and rheumatoid arthritis.
This experiment followed the published protocol--tumor was implanted adjacent to a polymer containing a concentration of the agent to be evaluated. The polymer releases the agent slowly in the immediate neighborhood of the tumor, providing sustained high local concentrations of the agent. In this experiment, squalamine introduced into a pellet of ELVAX 40 P (DuPont, Wilmington, Del.) inhibited new blood vessel formation by about 60% at days 7 and 14, and by about 25% at day 21.

[13] = tested on: human epithelial cell line MCF 10A; experiment: growth inhibition of human epithelial cells in vitro; type: cell-based; settings: 10 μg/ml

SMILES: CC(C)[C@@H](CC[C@@H](C)[C@H]1CC[C@H]2[C@@H]3[C@H](O)C[C@H]4C[C@@H](NCCCNCCCCN)CC[C@]4(C)[C@H]3CC[C@]12C)OS(=O)(=O)O [Squalamine, squalamine]
- inhibition of blast transformation (in words) ([1]; 10 μg/ml): Some effect was observed
- inhibition at 1 µg/mL ([1]; Homo sapiens, Lymphocyte, 1 μg/ml, read-out: inhibition of PHA-stimulated human lymphocytes (% control)): 3%
- inhibition at 5 µg/mL ([1]; Homo sapiens, Lymphocyte, 5 μg/ml, read-out: inhibition of PHA-stimulated human lymphocytes (% control)): 8%
- inhibition at 10 µg/mL ([1]; Homo sapiens, Lymphocyte, 10 μg/ml, read-out: inhibition of PHA-stimulated human lymphocytes (% control)): 10%
- effect on endothelial cord formation ([2]; 0.01 μg/ml): -
- effect on endothelial cord formation ([2]; 0.1 μg/ml): +
- effect on endothelial cord formation ([2]; 1.0 μg/ml): +
- effect on endothelial cord formation ([2]; 10.0 μg/ml): +
- cell viability or proliferation ([2]; at these concentrations): does not appear to profoundly affect cell viability or proliferation
- suppression of tumor volume ([3]; intraperitoneal): a dose-dependent suppression of tumor volume was observed
- suppression of tumor volume ([3]; oral): a dose-dependent suppression of tumor volume was observed
- body weight and hematologic parameters ([3]; s.c., i.p. or oral treatment): no significant depression
- tumor growth, single agent ([3]; squalamine 15 mg/kg/day, compound 1436 alone in a tolerable schedule): Neither administration of squalamine at 15 mg/kg/day nor compound 1436 alone in a tolerable schedule could achieve this effect
- impact on tumor volume ([3]; squalamine alone 5 mg/kg/day): no significant impact on tumor volume
- suppression of tumor volume ([3]; subcutaneous): a dose-dependent suppression of tumor volume was observed
- antibiotic activity [4]: broad-spectrum antibiotic, killing bacteria, fungi and protozoa
- inhibition of human NHE1 [5]: no inhibitory activity
- time to death of tadpole [6]: ≤ 2 h
- pharmacological response in tadpole ([6]; listed as Compound 1256 (Squalamine)): Vascular occlusion in fine capillaries of tail. No effect on vascular flow through hands or feet.
- amount resulting in inhibition of CAM vessel neovascularization ([7]; 3-day CAM): ≤ 0.65 µg
- inhibitory effect on 13-day old chick ([7]; ten times 0.65 μg): no inhibitory effect
- vitelline capillary regression ([8]; 0.001 μg applied): 0
- vitelline capillary regression ([8]; 0.01 μg applied): +
- vitelline capillary regression ([8]; 0.1 μg applied): +
- vitelline capillary regression ([8]; 1 μg applied): +
- vitelline capillary regression ([8]; 10 μg applied): +
- hemolysis ([8]; 0.1 ml in 15% Ficol in PBS): absence of hemolysis
- hemorrhage ([8]; 0.1 ml in 15% Ficol in PBS): No hemorrhage was seen
- lag period before vessel constriction ([8]; 0.1 ml in 15% Ficol in PBS): around 15 minutes
- activity in vitelline capillary regression assay (in words) ([8]; in vivo): especially active
- effect on chick embryo vitelline capillaries (in words) ([8]; in vivo): found to disrupt vitelline capillaries in 3- to 5-day chick embryos
- suppression of growth (in words) [9]: suppress in vitro the growth of human coronary artery smooth muscle
- growth of fibroblast line [10]: no effect on the growth
- inhibition of rabbit NHE1 [11]: no inhibitory activity
- inhibition of new blood vessel formation ([12]; day 7): about 60%
- inhibition of new blood vessel formation ([12]; day 14): about 60%
- growth of epithelial line [13]: no effect on the growth
